Biological target: VEGFR2, unphosphorylated (Homo sapiens (Human), UniProt P35968)
Assay: VEGFR ADP GLO Assay
Assay type: biochemical

VEGFR2, unphosphorylated, sequence (P35968 20-1356): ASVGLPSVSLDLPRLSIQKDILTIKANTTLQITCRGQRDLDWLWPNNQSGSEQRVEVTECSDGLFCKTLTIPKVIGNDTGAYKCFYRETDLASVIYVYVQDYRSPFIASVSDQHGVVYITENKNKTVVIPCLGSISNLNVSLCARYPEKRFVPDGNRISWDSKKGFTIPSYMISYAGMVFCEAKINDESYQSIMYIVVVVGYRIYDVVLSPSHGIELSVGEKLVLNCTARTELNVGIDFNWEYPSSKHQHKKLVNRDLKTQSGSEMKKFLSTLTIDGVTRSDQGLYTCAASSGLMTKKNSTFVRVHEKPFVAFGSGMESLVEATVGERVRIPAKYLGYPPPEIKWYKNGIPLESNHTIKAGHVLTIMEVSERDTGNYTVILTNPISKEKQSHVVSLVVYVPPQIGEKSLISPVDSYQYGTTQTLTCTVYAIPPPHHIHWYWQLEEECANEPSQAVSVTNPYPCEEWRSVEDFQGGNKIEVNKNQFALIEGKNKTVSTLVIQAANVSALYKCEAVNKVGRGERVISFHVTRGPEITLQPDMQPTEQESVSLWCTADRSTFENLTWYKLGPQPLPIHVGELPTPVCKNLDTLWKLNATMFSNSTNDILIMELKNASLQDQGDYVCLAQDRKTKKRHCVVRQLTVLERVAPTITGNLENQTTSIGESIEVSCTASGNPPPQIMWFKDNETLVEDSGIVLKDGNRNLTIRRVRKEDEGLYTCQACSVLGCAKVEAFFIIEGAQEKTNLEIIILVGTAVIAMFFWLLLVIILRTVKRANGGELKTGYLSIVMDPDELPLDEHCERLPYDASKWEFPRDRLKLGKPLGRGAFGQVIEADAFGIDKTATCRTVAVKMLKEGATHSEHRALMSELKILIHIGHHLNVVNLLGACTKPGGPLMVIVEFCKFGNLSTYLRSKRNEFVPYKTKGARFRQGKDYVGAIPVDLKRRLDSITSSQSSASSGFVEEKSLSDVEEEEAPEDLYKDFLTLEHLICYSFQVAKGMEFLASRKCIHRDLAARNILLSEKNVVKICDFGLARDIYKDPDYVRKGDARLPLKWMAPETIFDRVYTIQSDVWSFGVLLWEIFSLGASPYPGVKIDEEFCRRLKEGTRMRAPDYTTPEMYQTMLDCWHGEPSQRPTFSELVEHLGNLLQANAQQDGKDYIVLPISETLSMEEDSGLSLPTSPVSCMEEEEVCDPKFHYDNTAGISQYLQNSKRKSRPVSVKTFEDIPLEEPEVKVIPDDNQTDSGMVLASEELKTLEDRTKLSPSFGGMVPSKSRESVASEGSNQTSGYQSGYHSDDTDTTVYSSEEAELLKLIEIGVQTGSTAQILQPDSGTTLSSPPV

Row | Compound | IC50 [µM]
1 | COCCn1cc(-c2cn3ncc(C(=O)Nc4cc(NC(=O)CN5CCC[C@H]5C)cnc4C)c3s2)cn1 [Example 330, (R)-2-(1-(2-methoxyethyl)-1H-pyrazol-4-yl)-N-(2-methyl-5-(2-(2-methylpyrrolidin-1-yl)acetamido)pyridin-3-yl)pyrazolo[5,1-b]thiazole-7-carboxamide] | > 7.5
2 | Cc1ncc(NC(=O)CN2CC(C)(C)C2)cc1NC(=O)c1cnn2cc(-c3cnn(CC#N)c3)sc12 [Example 266, 2-(1-(cyanomethyl)-1H-pyrazol-4-yl)-N-(5-(2-(3,3-dimethylazetidin-1-yl)acetamido)-2-methylpyridin-3-yl)pyrazolo[5,1-b]thiazole-7-carboxamide] | > 7.5
3 | Cc1ncc(NC(=O)CN(C)C2CCOCC2)cc1NC(=O)c1cnn2cc(-c3cnn(C(F)F)c3)sc12 [Example 295, 2-(1-(difluoromethyl)-1H-pyrazol-4-yl)-N-(2-methyl-5-(2-(methyl(tetrahydro-2H-pyran-4-yl)amino)acetamido)pyridin-3-yl)pyrazolo[5,1-b]thiazole-7-carboxamide] | > 7.5
4 | Cc1ncc(NC(=O)[C@@H]2C[C@H](C)CN2C)cc1NC(=O)c1cnn2cc(-c3cccnc3O)sc12 [Example 316, N-(5-((2S,4S)-1,4-dimethylpyrrolidine-2-carboxamido)-2-methylpyridin-3-yl)-2-(2-hydroxypyridin-3-yl)pyrazolo[5,1-b]thiazole-7-carboxamide] | > 7.5
5 | Cc1ncc(NC(=O)C(C)N2CCCCCC2)cc1NC(=O)c1cnn2cc(-c3cnn(C)c3)sc12 (centres unmarked) [Example 306, N-(5-(2-(azepan-1-yl)propanamido)-2-methylpyridin-3-yl)-2-(1-methyl-1H-pyrazol-4-yl)pyrazolo[5,1-b]thiazole-7-carboxamide] | > 7.5
6 | Cc1ncc(NC(=O)CN2CC(C)(C)C2)cc1NC(=O)c1cnn2cc(-c3cnn(CC(F)(F)F)c3)sc12 [Example 268, N-(5-(2-(3,3-dimethylazetidin-1-yl)acetamido)-2-methylpyridin-3-yl)-2-(1-(2,2,2-trifluoroethyl)-1H-pyrazol-4-yl)pyrazolo[5,1-b]thiazole-7-carboxamide] | > 7.5
7 | Cc1ncc(NC(=O)CN2CCC3(CCOC3)C2)cc1NC(=O)c1cnn2cc(-c3cnn(C)c3)sc12 (centres unmarked) [Example 19, N-(5-(2-(2-oxa-7-azaspiro[4.4]nonan-7-yl)acetamido)-2-methylpyridin-3-yl)-2-(1-methyl-1H-pyrazol-4-yl)pyrazolo[5,1-b]thiazole-7-carboxamide] | > 7.5
8 | Cc1ncc(NC(=O)CN2CC(C)(C)C2)cc1NC(=O)c1cnn2cc(-c3cnn(CC4COC4)c3)sc12 [Example 263, N-(5-(2-(3,3-dimethylazetidin-1-yl)acetamido)-2-methylpyridin-3-yl)-2-(1-(oxetan-3-ylmethyl)-1H-pyrazol-4-yl)pyrazolo[5,1-b]thiazole-7-carboxamide] | > 7.5
9 | COCCn1cc(-c2cn3ncc(C(=O)Nc4cc(NC(=O)CN5CCC6(CC6)C5)cnc4C)c3s2)cn1 [Example 326, N-(5-(2-(5-azaspiro[2.4]heptan-5-yl)acetamido)-2-methylpyridin-3-yl)-2-(1-(2-methoxyethyl)-1H-pyrazol-4-yl)pyrazolo[5,1-b]thiazole-7-carboxamide] | > 7.5
10 | COCCn1cc(-c2cn3ncc(C(=O)Nc4cc(NC(=O)CN5CCC[C@@H]5C)cnc4C)c3s2)cn1 [Example 325, (S)-2-(1-(2-methoxyethyl)-1H-pyrazol-4-yl)-N-(2-methyl-5-(2-(2-methylpyrrolidin-1-yl)acetamido)pyridin-3-yl)pyrazolo[5,1-b]thiazole-7-carboxamide] | > 7.5
11 | COc1ncccc1-c1cn2ncc(C(=O)Nc3cc(NC(=O)CN4CCC5(CC5)C4)cnc3C)c2s1 [Example 324, N-(5-(2-(5-azaspiro[2.4]heptan-5-yl)acetamido)-2-methylpyridin-3-yl)-2-(2-methoxypyridin-3-yl)pyrazolo[5,1-b]thiazole-7-carboxamide] | 5.24
